The values below are quoted from earlier work in US20120058151A1, “NANOPARTICULATE COMPOSITIONS OF POORLY SOLUBLE COMPOUNDS” (CAPSULUTION PHARMA AG, priority 2008, published 2012).

For the molecule `CCOc1nc2cccc(C(=O)OC(C)OC(=O)OC3CCCCC3)c2n1Cc1ccc(-c2ccccc2-c2nnn[nH]2)cc1` (stereo not shown) [candesartan cilexetil], the solubility in water result is listed as “practically insoluble in water”.
